Assay [1] has as its system EGFR^19del/T790M/C797S–triple‐mutant cells. The conditions noted are these: cited from earlier work.
Assay [2] relates to BaF3‐EGFR^19del/T790M cells. The experiment in a line: Proliferation assay. The conditions noted are these: 72 h, read-out: IC50, antiproliferative, BaF3‐EGFR^19del/T790M. The class given is cell-based.
In the next assay the test system is PC‐9 (EGFR^19del) cells. Nature of the assay: Proliferation assay. The assay is classed as cell-based. The conditions noted are these: Homo sapiens, PC-9, 72 h, read-out: IC50, antiproliferative, PC‐9 cells.
In assay [3] the test system is BaF3‐EGFR^19del/T790M/C797S cells. The experiment in a line: Proliferation assay. The note with it: 72 h, read-out: IC50, antiproliferative, BaF3‐EGFR^19del/T790M/C797S. The class given is cell-based.
Another assay concerns EGFR^T790M patients. The note with it: cited from earlier work.
The test system of the next assay is PC‐9‐OR cells. Nature of the assay: Apoptosis, Annexin V‐FITC/PI flow cytometry. The assay is classed as cell-based. The note with it: concentrations between 30 nmol/L and 300 nmol/L, 48 h. A general note: A flow cytometer gives signals particle by particle.
Assay [4] concerns PC‐9‐OR cells (EGFR^19del/T790M/C797S). The experiment in a line: Proliferation assay. The class given is cell-based. The note with it: PC9-OR, 72 h, read-out: IC50, antiproliferative, PC‐9‐OR cells.
In assay [5] the test system is BaF3‐EGFR^19del/T790M/C797S cells. Nature of the assay: Apoptosis, Annexin V‐FITC/PI flow cytometry. The class given is cell-based. The conditions noted are these: concentrations between 30 nmol/L and 300 nmol/L, 48 h.

SMILES strings stand for the structures. Where two headings read alike, the source gives them in different places.

Consider four molecules from article PMC8819286 (Cancer Science, 2021).

As for `COc1cc(N2CCC(N3CCN(C)CC3)CC2)ccc1Nc1ncc(Cl)c(Nc2ccccc2P(C)(C)=O)n1` [Brigatinib], the “effectiveness against EGFR^19del/T790M/C797S–triple‐mutant cells” value (from here on “effectiveness”) in assay [1] (in vitro and in vivo) was “effective”.

Consider `C=CC(=O)Nc1cc(Nc2nccc(-c3cn(C)c4ccccc34)n2)c(OC)cc1N(C)CCN(C)C` [Osimertinib], for which the IC50 came out at 0.04 µM in assay [2], 0.08 µM with PC‐9 (EGFR^19del) cells, 3.38 µM in assay [3] and 4.85 µM in assay [4]. Besides, the response rate in the assay with EGFR^T790M patients is 61%. Moreover, the “apoptosis (in words)” value (with PC‐9‐OR cells; in assay [5]) was “hardly caused any significant apoptosis” throughout.

`O=C(Nc1nccs1)C(c1cc(F)ccc1O)N1Cc2ccccc2C1=O` (stereo not shown) [EAI045]: the “effectiveness” value in assay [1] is listed as “not effective”.

For the molecule `O=C(Nc1nccs1)C(c1cc(F)ccc1O)N1Cc2ccc(-c3ccc(N4CCNCC4)cc3)cc2C1=O` (stereo not shown) [JBJ‐04‐125‐02], the “effectiveness” value in assay [1] was “not effective”.
